Assay results as given in PubChem BioAssay (NCI).
Several values for one entry are separate records, joined by “and”; a condition that tells them apart may be missing. Equal values may be shown once.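 Interpolation was linear, between the two tested concentrations surrounding the appropriate level; five concentrations were tested over 48 hours in 96-well plates. GI50 = concentration required for 50% inhibition of growth. TGI marks complete inhibition of growth.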

Tests used:
Assay in all cases: inhibition of tumour cell growth, NCI panel, 48 h
PC-3 prostate = system: PC-3 prostate
LOX IMVI melanoma = system: LOX IMVI melanoma
SR leukemia = system: SR leukemia
NCI/ADR-RES ovarian = system: NCI/ADR-RES ovarian
HL-60(TB) leukemia = system: HL-60(TB) leukemia
CAKI-1 renal = system: CAKI-1 renal
NCI-H226 lung = system: NCI-H226 lung
CCRF-CEM leukemia = system: CCRF-CEM leukemia
HT29 colon = system: HT29 colon
RPMI-8226 leukemia = system: RPMI-8226 leukemia

OCCN(CCO)c1nc(N2CCCCC2)c2nc(N(CCO)CCO)nc(N3CCCCC3)c2n1
TGI (PC-3 prostate): > 100 µM
TGI (LOX IMVI melanoma): > 100 µM
TGI (SR leukemia): 22.2 µM
TGI (NCI/ADR-RES ovarian): > 100 µM
TGI (HL-60(TB) leukemia): 36.5 µM
TGI (CAKI-1 renal): > 100 µM
TGI (NCI-H226 lung): > 100 µM
TGI (CCRF-CEM leukemia): > 100 µM
TGI (HT29 colon): 40 µM

O=C(Nc1n[nH]c2nc(-c3ccc(O)cc3)c(Br)cc12)C1CC1
GI50 (PC-3 prostate): 4.49 µM
TGI (PC-3 prostate): > 23.4 µM
GI50 (LOX IMVI melanoma): 1.75 µM
TGI (LOX IMVI melanoma): 13.1 µM
GI50 (SR leukemia): 1.53 µM
TGI (SR leukemia): > 15.4 µM
GI50 (NCI/ADR-RES ovarian): 6.49 µM
TGI (NCI/ADR-RES ovarian): > 25 µM
GI50 (HL-60(TB) leukemia): 2.79 µM
TGI (HL-60(TB) leukemia): 15.4 µM
GI50 (CAKI-1 renal): 3.11 µM
TGI (CAKI-1 renal): 16.5 µM
GI50 (RPMI-8226 leukemia): 6.05 µM
TGI (RPMI-8226 leukemia): 15.7 µM
GI50 (NCI-H226 lung): 3.14 µM
TGI (NCI-H226 lung): 13.5 µM
GI50 (CCRF-CEM leukemia): 1.82 µM
TGI (CCRF-CEM leukemia): > 25 µM
GI50 (HT29 colon): 2.04 µM
TGI (HT29 colon): 13.8 µM

O=C(Nc1cn[nH]c1-c1nc2ccc(CN3CCOCC3)cc2[nH]1)NC1CC1
GI50 (PC-3 prostate): 0.957 µM and 4.29 µM
TGI (PC-3 prostate): 36.2 µM and > 10 µM
GI50 (LOX IMVI melanoma): 0.324 µM and 0.604 µM
TGI (LOX IMVI melanoma): 1.88 µM and > 10 µM
GI50 (SR leukemia): 0.0277 µM and 0.0539 µM
TGI (SR leukemia): 4.15 µM and 5.52 µM
GI50 (NCI/ADR-RES ovarian): 12.1 µM and > 10 µM
TGI (NCI/ADR-RES ovarian): > 86.7 µM
GI50 (HL-60(TB) leukemia): 1.94 µM and 7.38 µM
TGI (HL-60(TB) leukemia): 5.15 µM and > 10 µM
TGI (CAKI-1 renal): 15.2 µM and > 10 µM
GI50 (RPMI-8226 leukemia): 7.05 µM and > 10 µM
TGI (RPMI-8226 leukemia): 28.3 µM and > 10 µM
GI50 (NCI-H226 lung): 0.153 µM and 0.312 µM
GI50 (CCRF-CEM leukemia): 1.42 µM
TGI (CCRF-CEM leukemia): 8.69 µM
GI50 (HT29 colon): 0.272 µM and 2.22 µM
TGI (HT29 colon): 4.71 µM and > 10 µM

O=C1/C(=C/c2ccc(F)cc2)CN(C(=O)C(Cl)Cl)C/C1=C\c1ccc(F)cc1
GI50 (PC-3 prostate): 0.25 µM
TGI (PC-3 prostate): 0.818 µM
GI50 (LOX IMVI melanoma): 0.0346 µM
TGI (LOX IMVI melanoma): 0.0974 µM
GI50 (SR leukemia): 0.0386 µM
TGI (SR leukemia): > 100 µM
GI50 (NCI/ADR-RES ovarian): 0.327 µM
TGI (NCI/ADR-RES ovarian): 1.71 µM
GI50 (HL-60(TB) leukemia): 0.229 µM
TGI (HL-60(TB) leukemia): 1.55 µM
GI50 (CAKI-1 renal): 0.309 µM
TGI (CAKI-1 renal): 1.08 µM
GI50 (RPMI-8226 leukemia): 0.0341 µM
TGI (RPMI-8226 leukemia): 0.324 µM
GI50 (NCI-H226 lung): 4.22 µM
TGI (NCI-H226 lung): 22.5 µM
GI50 (CCRF-CEM leukemia): 0.136 µM
TGI (CCRF-CEM leukemia): > 24.2 µM
GI50 (HT29 colon): 0.181 µM

O=C(CCCC(=O)N/N=C/c1cc(Cl)ccc1O)N/N=C\c1cc(Cl)ccc1O
GI50 (PC-3 prostate): 2.68 µM
TGI (PC-3 prostate): > 100 µM
GI50 (LOX IMVI melanoma): 1.69 µM
TGI (LOX IMVI melanoma): 25.4 µM
GI50 (NCI/ADR-RES ovarian): 3.44 µM
TGI (NCI/ADR-RES ovarian): > 100 µM
GI50 (HL-60(TB) leukemia): 2.48 µM
TGI (HL-60(TB) leukemia): 8.28 µM
GI50 (CAKI-1 renal): 1.98 µM
TGI (CAKI-1 renal): > 100 µM
GI50 (RPMI-8226 leukemia): 4.67 µM
TGI (RPMI-8226 leukemia): > 100 µM
GI50 (NCI-H226 lung): 6.64 µM
TGI (NCI-H226 lung): 65.7 µM
GI50 (CCRF-CEM leukemia): 1.25 µM
TGI (CCRF-CEM leukemia): 34.3 µM
GI50 (HT29 colon): 21.2 µM
TGI (HT29 colon): > 100 µM

COc1ccc(CNCCCN2C(=O)c3ccc4c5c(ccc(c35)C2=O)C(=O)N(CCCNCc2ccc(OC)c(OC)c2OC)C4=O)c(OC)c1OC
GI50 (PC-3 prostate): 0.109 µM
TGI (PC-3 prostate): 0.293 µM
GI50 (LOX IMVI melanoma): 0.0795 µM
TGI (LOX IMVI melanoma): 0.155 µM
GI50 (SR leukemia): 0.165 µM
TGI (SR leukemia): 0.644 µM
GI50 (NCI/ADR-RES ovarian): 1.01 µM
TGI (NCI/ADR-RES ovarian): 3.01 µM
GI50 (CAKI-1 renal): 0.671 µM
TGI (CAKI-1 renal): 1.95 µM
GI50 (RPMI-8226 leukemia): 0.145 µM
TGI (RPMI-8226 leukemia): 0.56 µM
GI50 (NCI-H226 lung): 0.337 µM
TGI (NCI-H226 lung): 1.1 µM
GI50 (CCRF-CEM leukemia): 0.137 µM
TGI (CCRF-CEM leukemia): 2.04 µM
GI50 (HT29 colon): 0.0522 µM
TGI (HT29 colon): 0.244 µM

O=[N+]([O-])c1ccc(N=Nc2c(Cl)cc(O)cc2Cl)cc1
GI50 (PC-3 prostate): 2.72 µM
TGI (PC-3 prostate): 15.4 µM
GI50 (LOX IMVI melanoma): 1.73 µM
TGI (LOX IMVI melanoma): 10.6 µM
GI50 (SR leukemia): 0.421 µM
TGI (SR leukemia): 6.09 µM
GI50 (NCI/ADR-RES ovarian): 0.863 µM
TGI (NCI/ADR-RES ovarian): 8.49 µM
GI50 (HL-60(TB) leukemia): 0.382 µM
TGI (HL-60(TB) leukemia): 2.86 µM
GI50 (CAKI-1 renal): 2.26 µM
TGI (CAKI-1 renal): 5.79 µM
GI50 (NCI-H226 lung): 2.83 µM
TGI (NCI-H226 lung): 11.3 µM
GI50 (CCRF-CEM leukemia): 0.571 µM
TGI (CCRF-CEM leukemia): 7.25 µM
GI50 (HT29 colon): 3.7 µM
TGI (HT29 colon): 12.6 µM

CC1(C)N=c2cc3c(cc2N1c1ccc(Cl)cc1)=Nc1ccccc1N3c1ccc(Cl)cc1
GI50 (PC-3 prostate): 2.45 µM
TGI (PC-3 prostate): > 100 µM
GI50 (LOX IMVI melanoma): 5.44 µM
TGI (LOX IMVI melanoma): 24.8 µM
GI50 (NCI/ADR-RES ovarian): 5.21 µM
TGI (NCI/ADR-RES ovarian): > 100 µM
GI50 (HL-60(TB) leukemia): 1.74 µM
TGI (HL-60(TB) leukemia): 4.2 µM
GI50 (CAKI-1 renal): 18.2 µM
TGI (CAKI-1 renal): > 100 µM
GI50 (RPMI-8226 leukemia): 2.05 µM
TGI (RPMI-8226 leukemia): 11.8 µM
GI50 (NCI-H226 lung): 4.95 µM
TGI (NCI-H226 lung): > 100 µM
GI50 (CCRF-CEM leukemia): 2.6 µM
TGI (CCRF-CEM leukemia): 13.9 µM
GI50 (HT29 colon): 7.85 µM
TGI (HT29 colon): > 100 µM

FC(F)(F)c1cc(NC(=S)N2c3ccccc3-n3cccc3C2c2cccnc2)cc(C(F)(F)F)c1 (stereo not drawn)
TGI (PC-3 prostate): 16.7 µM
GI50 (SR leukemia): 4.64 µM
TGI (SR leukemia): 22.7 µM
GI50 (NCI/ADR-RES ovarian): 4.18 µM
TGI (NCI/ADR-RES ovarian): 18.2 µM
GI50 (HL-60(TB) leukemia): 3.87 µM
TGI (HL-60(TB) leukemia): 21.4 µM
GI50 (CAKI-1 renal): 5.36 µM
TGI (CAKI-1 renal): 21.7 µM
GI50 (RPMI-8226 leukemia): 3.84 µM
TGI (RPMI-8226 leukemia): 18.7 µM
GI50 (NCI-H226 lung): 22.7 µM
TGI (NCI-H226 lung): 54.7 µM
GI50 (CCRF-CEM leukemia): 4.1 µM
TGI (CCRF-CEM leukemia): 33.7 µM
GI50 (HT29 colon): 12.5 µM
TGI (HT29 colon): 34.5 µM

CCCCc1n(Cc2ccc3ccccc3n2)cc[n+]1Cc1ccc2ccccc2n1
GI50 (PC-3 prostate): 1.51 µM
TGI (PC-3 prostate): 10.6 µM
GI50 (LOX IMVI melanoma): 1.52 µM
TGI (LOX IMVI melanoma): 4.67 µM
GI50 (SR leukemia): 0.537 µM
TGI (SR leukemia): 4.87 µM
GI50 (NCI/ADR-RES ovarian): > 100 µM
TGI (NCI/ADR-RES ovarian): > 100 µM
GI50 (HL-60(TB) leukemia): 0.295 µM
TGI (HL-60(TB) leukemia): 1.11 µM
GI50 (RPMI-8226 leukemia): 0.295 µM
TGI (RPMI-8226 leukemia): 3.28 µM
GI50 (NCI-H226 lung): 2.26 µM
TGI (NCI-H226 lung): 11.8 µM
GI50 (CCRF-CEM leukemia): 1.59 µM
TGI (CCRF-CEM leukemia): 13.9 µM
GI50 (HT29 colon): 0.801 µM
TGI (HT29 colon): 7.89 µM

CN[C@@H](Cc1cccc2ccccc12)C(=O)N[C@@H](CC(C)C)B(O)O
GI50 (PC-3 prostate): 0.0391 µM
TGI (PC-3 prostate): 0.154 µM and 0.031 µM
GI50 (LOX IMVI melanoma): 0.0135 µM
TGI (LOX IMVI melanoma): 0.0324 µM
GI50 (SR leukemia): 0.0163 µM
TGI (SR leukemia): 0.281 µM
GI50 (NCI/ADR-RES ovarian): 0.0412 µM
TGI (NCI/ADR-RES ovarian): 0.197 µM
TGI (CAKI-1 renal): 0.0272 µM and < 0.0131 µM
GI50 (RPMI-8226 leukemia): 0.00547 µM
TGI (RPMI-8226 leukemia): 0.0439 µM
TGI (NCI-H226 lung): 0.00722 µM
TGI (CCRF-CEM leukemia): 0.0354 µM
TGI (HT29 colon): 0.025 µM

O=C1c2ccccc2C(=O)c2c1oc1c2c(=O)[nH]c2ccc(Cl)cc21
GI50 (PC-3 prostate): 0.182 µM
TGI (PC-3 prostate): 0.46 µM
GI50 (LOX IMVI melanoma): 0.321 µM
TGI (LOX IMVI melanoma): 1.3 µM
GI50 (SR leukemia): 0.496 µM
TGI (SR leukemia): 3.94 µM
GI50 (NCI/ADR-RES ovarian): 0.354 µM
TGI (NCI/ADR-RES ovarian): 1.77 µM
GI50 (HL-60(TB) leukemia): 1.7 µM
TGI (HL-60(TB) leukemia): 5.25 µM
GI50 (RPMI-8226 leukemia): 0.387 µM
TGI (RPMI-8226 leukemia): 2.64 µM
GI50 (NCI-H226 lung): 0.143 µM
TGI (NCI-H226 lung): 0.355 µM
GI50 (CCRF-CEM leukemia): 0.403 µM
TGI (CCRF-CEM leukemia): 4.66 µM
GI50 (HT29 colon): 3.7 µM
TGI (HT29 colon): 12.9 µM

CCn1c(SCC(=O)Nc2cc(C(F)(F)F)ccc2Cl)nc2ccccc2c1=O
GI50 (PC-3 prostate): 14 µM
TGI (PC-3 prostate): > 100 µM
GI50 (LOX IMVI melanoma): > 100 µM
TGI (LOX IMVI melanoma): > 100 µM
GI50 (SR leukemia): > 100 µM
TGI (SR leukemia): > 100 µM
GI50 (NCI/ADR-RES ovarian): 32.8 µM
TGI (NCI/ADR-RES ovarian): > 100 µM
GI50 (HL-60(TB) leukemia): > 100 µM
TGI (HL-60(TB) leukemia): > 100 µM
GI50 (CAKI-1 renal): 24 µM
TGI (CAKI-1 renal): > 100 µM
GI50 (RPMI-8226 leukemia): > 100 µM
TGI (RPMI-8226 leukemia): > 100 µM
GI50 (NCI-H226 lung): 29.9 µM
TGI (NCI-H226 lung): > 100 µM
GI50 (HT29 colon): > 100 µM
TGI (HT29 colon): > 100 µM
